# Experimental data reported in patent publication US20100273206A1, “DIAGNOSTIC IN VITRO METHOD FOR ASSESSING VON WILLEBRAND DISEASE AND INCREASED BLEEDING RISK ASSOCIATED WITH VON WILLEBRAND DISEASE AND ACQUIRED OR CONGENITAL DISORDERS OF PLATELET FUNCTION” (priority 2007, published 2010).
# Tests used:
# VWD type 1 patients = assay: In vivo therapy control (DDAVP); set-up: species or system human; settings: three VWD type 1 patients; before, 30 min and 180 min after DDAVP
# Text: Therapy in VWD may be necessary to alleviate a bleeding episode or to prevent bleeding episode. Most individuals with type 1 VWD generally are managed effectively using DDAVP (Desmopressin acetate), which acts to release endogenous stored VWF. It is usual to conduct a trial of DDAVP and then monitor the response by subsequent blood sampling and testing. […] The method is a simple and rapid tool to discriminate responders from nonresponders to DDAVP. The advantage of this method is the close to immediate test time obtained. The result is available very soon after blood sampling. In contrast the VWF:CB result is generally obtained some days after blood sampling. The values for the amplitude ratio, the VWF:Ag and VWF-RCo are shown in figure 7 for three time points (before, 30 min after and 180 min after administration of DDAVP).
# [1] = system: citrate-stabilized blood (platelets and VWF); assay: TEG maximal amplitude with versus without ristocetin preincubation; format: cell-based, human; settings: for maximal amplitude after ristocetin preincubation relative to maximal amplitude without preincubation: 25 μL of 15 mg/mL ristocetin per 500 μL, 10 min
# Description: If TEG is the assay to determine the viscoelastic change the platelet activation in response to the activator of platelet aggregation for example ristocetin can by way of non limiting example be determined from the maximum amplitudes in the control without added platelet activator (MA) and the sample with the added platelet activator Ristocetin (MARistocetin): which can then be expressed as the ratio (MARistocetin/MA)*100. The percentage change is determined to assess individual subject's responses, thus providing an indication of relative response to a certain dose of ristocetin.
# Analyser and the reagents were from Haemoscope Corporation. 1.3 mL of blood was collected in 3.18% trisodium citrate (1:9 anticoagulant to blood). One millilitre of citrate-stabilized blood was transferred to a vial containing a standardized kaolin reagent and mixed by inversion. The mixture was mixed well and divided into two 500 μL aliquots. 25 μL ristocetin at a concentration of 15 mg mL^−1 was added to one part of the activated blood aliquots and both samples were incubated on a mixer for 10 min. 360 μL of both aliquots were filled to TEG assay cups and 20 μL of 0.2 M CaCl2 were added. The TEG tracings were allowed to run as least until the maximal amplitude was reached.
# According to the procedure in example 2 blood samples from healthy patients and patients with from VWD were tested. All VWD samples derived from patients diagnosed as having VWD using standard criteria. In addition to VWD plasma, a number of normal samples were also collected and used for comparative studies. The platelet activation in response to ristocetin is determined from the maximum amplitudes in the control (MA) and ristocetin activated trace (MARistocetin): MARicocetin/MA*100. The percentage change was calculated to assess individual subject's responses, thus providing an indication of relative response to a certain dose of ristocetin (0.71 mg/ml and 1,05 mg/ml final concentration). The Kaolin induced sample without adding ristocetin acted as the control measurement. […] Almost all platelets are deactivated and no more platelet contribution to the clot strength is detectable.
# [2] = system: citrate-stabilized blood from a healthy patient; assay: TEG (Rotem) of kaolin-activated citrated blood incubated with increasing amounts of ristocetin; format: cell-based, human; settings: 10 min incubation, increasing final ristocetin concentration (up to 1.05 mg/ml)
# Description: Citrate-stabilized blood from a healthy patient was transferred to a vial containing a standardized kaolin reagent and mixed by inversion The kaolin reagent was purchased from Haemoscope Corporation. The mixture was mixed well and divided into two 500 μL aliquots. Different amounts of ristocetin at a concentration of 15 mg mL^−1 was added to one part of the activated blood aliquots and both samples were incubated on a mixer for 10 min. 300 μL of both aliquots were filled to TEG assay cups and 20 μL of 0.2 M CaCl2 were added. The TEG tracings were allowed to run as least until the maximal amplitude was reached using a Rotem Analyser. […] Dependent of the final ristocetin concentration a decrease of the maximal amplitude and an increase in the clotting time were observed.
Compound,TEG ratio (maximal amplitude with ristocetin/without ristocetin)*100 (VWD type 1 patients),VWF:Ag (VWD type 1 patients),ristocetin cofactor activity (VWD type 1 patients),maximal amplitude after ristocetin preincubation relative to maximal amplitude without preincubation ([1]; blood from a VWD type 1 patient),maximal amplitude after ristocetin preincubation relative to maximal amplitude without preincubation ([1]; blood from a VWD type 3 patient),maximal amplitude after ristocetin preincubation relative to maximal amplitude without preincubation ([1]; normal blood),"clot strength after ristocetin incubation ([1]; patients with VWD, 0.71 mg/ml and 1,05 mg/ml final concentration)","maximum amplitude after incubation with ristocetin ([1]; patients without VWD, 0.71 mg/ml and 1,05 mg/ml final concentration)",clotting time [2],maximal amplitude [2]
"NC(=O)CC[C@@H]1NC(=O)[C@H](Cc2ccccc2)NC(=O)[C@H](Cc2ccc(O)cc2)NC(=O)CCSSC[C@@H](C(=O)N2CCC[C@H]2C(=O)N[C@H](CCCN=C(N)N)C(=O)NCC(N)=O)NC(=O)[C@H](CC(N)=O)NC1=O [DDAVP, Desmopressin acetate]",normalize,increase,increase,–,–,–,–,–,–,–
ristocetin,–,–,–,about 75%,~100%,about 20%,not or only slightly modified,significant decrease,increase,decrease
